Laboratory results: ChEMBL document CHEMBL5058564, “EUbOPEN Chemogenomics Library 2 (Incucyte)” (2022)
Where a SMILES comes first, the peptide text is derived from it. [ ]: non-standard residue; d: D form. The star is where a group is joined. dPhe(4-NHCONH2) = NC(=O)Nc1ccc(C[C@@H](N)C(=O)O)cc1; Dihydroorotyl(S) = O=C1C[C@@H](C(=O)*)NC(=O)N1; dPhe(4-Cl) = N[C@H](Cc1ccc(Cl)cc1)C(=O)O; Phe(4-NH2) = Nc1ccc(C[C@H](N)C(=O)O)cc1; d2Nal = N[C@H](Cc1ccc2ccccc2c1)C(=O)O; Lys(iPr) = CC(C)NCCCC[C@H](N)C(=O)O; d3Pal = N[C@H](Cc1cccnc1)C(=O)O

Tests used:
Type in all cases: toxicity, cell-based
HEK-293T = test: Incucyte cell viability with HEK293T; conditions: human, 10 µM, compound concentration 10 uM
U2OS = test: Incucyte cell viability with U2OS; conditions: human, 10 µM, compound concentration 10 uM
Fibroblast = test: Incucyte cell viability with human fibroblast; conditions: 10 µM, compound concentration 10 uM
[1] = 0 h, replicate number 1, timepoint 0 hours
[2] = 0 h, replicate number 2, timepoint 0 hours
[3] = 6 h, replicate number 1, timepoint 6 hours
[4] = 12 h, replicate number 1, timepoint 12 hours
[5] = 18 h, replicate number 1, timepoint 18 hours
[6] = 18 h, replicate number 2, timepoint 18 hours
[7] = 24 h, replicate number 1, timepoint 24 hours
[8] = 24 h, replicate number 2, timepoint 24 hours
[9] = 6 h, replicate number 2, timepoint 6 hours
[10] = 12 h, replicate number 2, timepoint 12 hours
Also: unitless GR value; below 1 slowed growth and below 0 cell loss.

Structure (SMILES)	Growth Rate (HEK-293T; [1])	Growth Rate (HEK-293T; [2])	Growth Rate (HEK-293T; [3])	Growth Rate (HEK-293T; [4])	Growth Rate (HEK-293T; [5])	Growth Rate (HEK-293T; [7])	Growth Rate (HEK-293T; [8])	Growth Rate (U2OS; [2])	Growth Rate (U2OS; [9])	Growth Rate (U2OS; [6])	Growth Rate (Fibroblast; [1])	Growth Rate (Fibroblast; [2])	Growth Rate (Fibroblast; [4])	Growth Rate (U2OS; [1])	Growth Rate (U2OS; [3])	Growth Rate (U2OS; [4])	Growth Rate (Fibroblast; [9])	Growth Rate (Fibroblast; [3])	Growth Rate (U2OS; [5])	Growth Rate (U2OS; [7])	also measured
CC(C)C[C@@H](NC(=O)[C@H](Cc1ccccc1)NC(=O)CNC(=O)[C@@H](C)NC(=O)[C@@H](N)Cc1ccc(O)cc1)C(=O)O [DADLE]	0.71	0.5	0.4	0.61	0.72	0.8	0.91	0.25	0.82	0.98	0.72	-0.04	0.89	–	–	–	–	–	–	–	Growth Rate (HEK-293T; [6]): 1; Growth Rate (U2OS; [10]): 0.93; Growth Rate (U2OS; [8]): 0.99
Cc1ccccc1N1CCN(CCc2nnc3n2CCCC3)CC1.Cl [DAPIPRAZOLE HYDROCHLORIDE]	–	-0.18	0.83	–	0.93	0.96	–	–	–	–	-0.42	0.16	0.81	0.33	0.94	0.78	0.85	–	–	–	Growth Rate (Fibroblast; [7]): 0.68
CC(=O)N[C@H](Cc1ccc2ccccc2c1)C(=O)N[C@H](Cc1ccc(Cl)cc1)C(=O)N[C@H](Cc1cccnc1)C(=O)N[C@@H](CO)C(=O)N[C@@H](Cc1ccc(NC(=O)[C@@H]2CC(=O)NC(=O)N2)cc1)C(=O)N[C@H](Cc1ccc(NC(N)=O)cc1)C(=O)N[C@@H](CC(C)C)C(=O)N[C@@H](CCCCNC(C)C)C(=O)N1CCC[C@H]1C(=O)N[C@H](C)C(N)=O [DEGARELIX] (Ac-[d2Nal][dPhe(4-Cl)][d3Pal]S[Phe(4-NH2)](Dihydroorotyl(S))[dPhe(4-NHCONH2)]L[Lys(iPr)]P[dA]-NH2)	-0.99	–	–	–	–	–	–	–	–	–	-1	-0.9	–	-1	–	–	–	–	–	–	–
C[C@@H]1C[C@H]2[C@@H]3CCC4=CC(=O)C=C[C@]4(C)[C@@]3(F)[C@@H](O)C[C@]2(C)[C@@]1(O)C(=O)CO [DEXAMETHASONE]	0.4	–	–	0.98	0.86	0.7	0.99	-1	0.65	0.95	0.73	–	–	0.07	–	–	–	0.88	–	–	–
O=C(O)Cc1ccccc1Nc1c(Cl)cccc1Cl [DICLOFENAC]	–	0.45	0.97	–	–	–	–	-1	0.98	–	0.78	0.28	–	–	–	–	–	0.86	–	–	–
CN1C[C@H](C(=O)N[C@]2(C)O[C@@]3(O)[C@@H]4CCCN4C(=O)[C@H](Cc4ccccc4)N3C2=O)C[C@@H]2c3cccc4[nH]cc(c34)C[C@H]21.CS(=O)(=O)O [DIHYDROERGOTAMINE MESYLATE]	-0.57	-0.38	–	0.96	0.98	–	–	–	–	–	-0.33	-0.55	–	0.01	0.44	–	–	–	0.95	–	–
C[S+](C)[O-] [DIMETHYL SULFOXIDE]	0.62	0.67	–	–	0.93	–	–	-0.56	0.93	0.98	–	0.18	0.81	0.71	0.96	–	–	0.29	0.94	0.98	Growth Rate (Fibroblast; [10]): 0.86; Growth Rate (Fibroblast; [8]): 0.93
O=c1ccn([C@@H]2O[C@H](COP(=O)([O-])OP(=O)([O-])OP(=O)([O-])OP(=O)([O-])OC[C@H]3O[C@@H](n4ccc(=O)[nH]c4=O)[C@H](O)[C@@H]3O)[C@@H](O)[C@H]2O)c(=O)[nH]1.[Na+].[Na+].[Na+].[Na+] [DIQUAFOSOL TETRASODIUM]	0.43	0.4	0.69	0.73	0.72	0.85	0.81	–	–	0.92	0.39	–	–	-0.05	0.17	0.47	0.61	–	0.88	0.93	Growth Rate (HEK-293T; [9]): 0.63; Growth Rate (Fibroblast; [7]): 0.89
C[C@]12N[C@H](Cc3ccccc31)c1ccccc12 [DIZOCILPINE]	–	–	–	–	–	–	1	–	0.81	0.93	–	0.6	0.08	–	0.6	–	–	0.45	0.97	–	Growth Rate (HEK-293T; [10]): 0.84; Growth Rate (HEK-293T; [6]): 0.88; Growth Rate (U2OS; [10]): 0.75; Growth Rate (U2OS; [8]): 0.98; Growth Rate (Fibroblast; [5]): 0.43; Growth Rate (Fibroblast; [7]): 0.25
Cl.NCCc1ccc(O)c(O)c1 [DOPAMINE HYDROCHLORIDE]	0.96	–	0.72	0.97	–	–	–	–	–	–	0.12	0.55	–	0.15	0.57	0.79	0.26	–	0.8	0.95	Growth Rate (Fibroblast; [10]): 0.67; Growth Rate (Fibroblast; [6]): 0.95
CC[C@H]1CN2CCc3cc(OC)c(OC)cc3[C@@H]2C[C@@H]1C[C@H]1NCCc2cc(OC)c(OC)cc21 [EMETINE]	–	0.89	-0.64	-0.71	-0.56	-0.45	-0.51	-1	0.89	0.25	–	0.68	-0.71	–	0.25	0.43	-0.75	-0.4	0.21	0	Growth Rate (HEK-293T; [9]): -0.77; Growth Rate (HEK-293T; [10]): -0.68; Growth Rate (HEK-293T; [6]): -0.65; Growth Rate (U2OS; [10]): 0.49; Growth Rate (U2OS; [8]): 0.17; Growth Rate (Fibroblast; [10]): -0.61; Growth Rate (Fibroblast; [5]): -0.63; Growth Rate (Fibroblast; [6]): -0.61; Growth Rate (Fibroblast; [7]): -0.47; Growth Rate (Fibroblast; [8]): -0.61
CNC[C@H](O)c1ccc(O)c(O)c1 [EPINEPHRINE]	0.03	–	0.83	0.73	0.84	–	–	–	0.96	0.9	0.11	-0.14	–	0.36	0.63	0.43	–	–	0.85	0.86	Growth Rate (U2OS; [10]): 0.71; Growth Rate (U2OS; [8]): 0.94
NC(N)=Nc1nc(CSCCC(N)=NS(N)(=O)=O)cs1 [FAMOTIDINE]	–	–	0.72	0.65	–	0.96	–	-1	–	–	0.55	0.42	0.41	–	0.18	–	0.22	–	–	–	Growth Rate (HEK-293T; [9]): 0.45; Growth Rate (HEK-293T; [6]): 0.89; Growth Rate (Fibroblast; [10]): 0.17; Growth Rate (Fibroblast; [6]): 0.4; Growth Rate (Fibroblast; [8]): 0.89
